Patent US11253525B2, “Inhibitors of indoleamine 2,3-dioxygenase and methods of their use” (BRISTOL-MYERS SQUIBB COMPANY, priority 2018, dated 2022)
Like-named read-outs stand apart in the source and are kept apart here.

Experiments:
[1] = biological target: T1, indoleamine 2,3-dioxygenase (IDO) (Homo sapiens, UniProt P14902); assay: HeLa cell-based indoleamine 2,3-dioxygenase (IDO) assay, kynurenine production; details: HeLa cells, IFNγ 25 ng/mL, 48 hour incubation
T1 construct: replaced with media containing IFNγ (#285-IF/CF, R&D Systems) at a final concentration of 25 ng/mL; endogenous in cells; host or cells: HeLa (ATCC CCL-2), IFN-gamma stimulated

human IDO1 = biological target: T2, human IDO1 (Homo sapiens, UniProt P14902); assay: HEK293 cell-based indoleamine 2,3-dioxygenase (IDO) assay; details: human IDO1/HEK293 cells, 20 hours
T2 construct: expressed in transfected cells
Experimental: Assessment of Inhibitor Activity in HEK293 Cell-Based Indoleamine 2,3-Dioxygenase (IDO) Assay
HEK293 cells were transfected with a pCDNA-based mammalian expression vector harboring human IDO1 cDNA (NM 002164.2) by electroporation. They were cultured in medium (DMEM with 10% FBS) containing 1 mg/ml G418 for two weeks. Clones of HEK293 cells that stably expressed human IDO1 protein were selected and expanded for IDO inhibition assay.
The human IDO1/HEK293 cells were seeded at 10,000 cells per 50 μL per well with RPMI/phenol red free media contains 10% FBS in a 384-well black wall clear bottom tissue culture plate (Matrix Technologies LLC) 100 nL of certain concentration of compound was then added to each well using ECHO liquid handling systems. The cells were incubated for 20 hours in 37° C. incubator with 5% CO2.
The compound treatments were stopped by adding trichloroacetic acid (Sigma-Aldrich) to a final concentration at 0.2%. The cell plate was further incubated at 50° C. for 30 minute. The equal volume supernatant (20 μL) and 0.2% (w/v) Ehrlich reagent (4-dimethylaminobenzaldehyde, Sigma-Aldrich) in glacial acetic acid were mixed in a new clear bottom 384-well plate. This plate was then incubated at room temperature for 30 minute. The absorbance at 490 nm was measured on Envision plate reader.
Compound IC50 values were calculated using the counts of 500 nM of a reference standard treatment as one hundred percent inhibition, and counts of no compound but DMSO treatment as zero percent inhibition.

[2] = read-out: IDO Hela IC50 class (A < 50, B < 250, C < 2000)
[3] = read-out: IDO1 HEK Human IC50 class (A < 50, B < 250, C < 2000)

T1 sequence (P14902 whole entry): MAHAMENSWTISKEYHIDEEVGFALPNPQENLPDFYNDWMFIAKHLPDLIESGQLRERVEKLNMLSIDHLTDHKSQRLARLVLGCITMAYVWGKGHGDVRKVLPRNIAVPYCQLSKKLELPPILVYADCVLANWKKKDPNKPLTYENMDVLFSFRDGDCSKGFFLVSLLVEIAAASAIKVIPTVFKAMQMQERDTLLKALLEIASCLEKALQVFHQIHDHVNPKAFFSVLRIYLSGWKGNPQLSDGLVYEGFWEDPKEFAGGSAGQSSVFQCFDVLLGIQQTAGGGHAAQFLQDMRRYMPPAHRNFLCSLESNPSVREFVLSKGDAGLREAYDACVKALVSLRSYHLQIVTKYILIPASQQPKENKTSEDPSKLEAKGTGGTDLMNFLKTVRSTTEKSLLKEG
T2 sequence (P14902 whole entry): as above

Row | SMILES | IC50 ([1]; read-out: IDO Hela IC50) [nM] | IC50 (human IDO1; read-out: IDO1 HEK Human IC50) [nM] | IC50 [1, 2] [nM] | IC50 (human IDO1; [3]) [nM]
1 | CC(C)CC(CC(C)C)c1ccc(-c2ccccc2-c2nn[nH]n2)cc1NC(=O)Nc1ccc(Cl)cc1F [Example 135, 1-(4-Chloro-2-fluorophenyl)-3-(4-(2,6-dimethylheptan-4-yl)-2′-(2H-tetrazol-5-yl)-[1,1′-biphenyl]-3-yl)urea] | 10 | 10 | – | –
2 | CCO[C@@H](c1ccc([C@H](CC)CC(=O)O)cc1Nc1ccc(Cl)cc1)C(F)(F)F (stereo in doubt) [Example 34, (R)-3-(3-((4-chlorophenyl)amino)-4-((S)-1-ethoxy-2,2,2-trifluoroethyl)phenyl)pentanoic acid] | – | 1 | < 50 | –
3 | CCO[C@@H](c1ccc(F)cc1)c1cc(Nc2ccc3nc(C)sc3c2)cc([C@H](CC)CC(=O)O)c1 (single isomer, unassigned) [Example 114] | 20 | 23 | – | –
4 | CC[C@@H](CC(=O)O)c1ccc(C(CC(C)C)CC(C)C)c(NC(=O)Nc2ccc(C)cc2)c1 [Example 137, (S)-3-(4-(2,6-Dimethylheptan-4-yl)-3-(3-(p-tolyl)ureido)phenyl)pentanoic Acid] | – | 4 | < 50 | –
5 | CCO[C@@H](c1ccc(F)cc1)c1cc(Nc2ccc(Cl)cc2)cc([C@H](CC)CC(=O)O)c1 (single isomer, unassigned) [Example 112-1] | – | 2 | < 50 | –
6 | CCO[C@H](c1ccc([C@H](CC)CC(=O)O)cc1Nc1ccc(Cl)cc1)C(F)(F)F (single isomer, unassigned) [Example 11] | – | 1 | < 50 | –
7 | Cc1cc(NC(=O)Nc2cc(-c3ccccc3-c3nn[nH]n3)ccc2C(CC(C)C)CC(C)C)no1 [Example 136, 1-(4-(2,6-Dimethylheptan-4-yl)-2′-(2H-tetrazol-5-yl)-[1,1′-biphenyl]-3-yl)-3-(5-methylisoxazol-3-yl)urea] | – | 19 | – | –
8 | Cc1ccc(NC(=O)Nc2cc(-c3ccccc3-c3nn[nH]n3)ccc2C(CC(C)C)CC(C)C)cc1 [Example 134, 1-(4-(2,6-dimethylheptan-4-yl)-2′-(2H-tetrazol-5-yl)-[1,1′-biphenyl]-3-yl)-3-(p-tolyl)urea] | – | 20 | – | –
9 | CCOC(C)(C)c1ccc(C(CC)CC(=O)O)cc1Nc1ccc2nc(C)sc2c1 (single isomer, unassigned) [Example 3] | – | – | – | 250 to 2000
10 | CCOC(C)(C)c1ccc([C@@H](CC)CC(=O)O)cc1Nc1ccc(Cl)cc1 (single isomer, unassigned) [Example 5] | – | 95 | – | –
11 | CCOC(C)(C)c1ccc([C@@H](CC)CC(=O)O)cc1Nc1ccc2nc(C)sc2c1 (single isomer, unassigned) [Example 4] | – | – | – | 250 to 2000
12 | CCO[C@H](c1ccc(F)cc1)c1cc(Nc2ccc(Cl)cc2)cc([C@H](CC)CC(=O)O)c1 (single isomer, unassigned) [Example 113-1] | 20 | 20 | – | –
13 | CCO[C@H](c1ccc(F)cc1)c1cc(Nc2ccc3nc(C)sc3c2)cc([C@H](CC)CC(=O)O)c1 (single isomer, unassigned) [Example 116] | – | 108 | – | –
14 | CCO[C@@H](c1ccc(F)cc1)c1cc(Nc2ccc(Cl)cc2)cc([C@@H](CC)CC(=O)O)c1 (single isomer, unassigned) [Example 112-2] | 30 | 7 | – | –
